Tests used:
[1] = molecular target: T1, Avi-KRAS G12D (1-169) GppNHp/RAF1 RBD-3xFLAG (52-151) (Homo sapiens, UniProt P01116, G12D); assay: Raf1-KRAS G12D-GppNHP disruption HTRF assay (Biological Example 1); type: binding
T1 construct: Avi-KRAS G12D (1-169)
Outline: (§1)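 Read-out is HTRF signal of the KRAS–RAF1 RBD complex, reported as percentage of activity relative to DMSO (100%). Protein mix and detection reagents each incubated 1 h at room temperature with 700 rpm shaking. Buffer: 50 mM Tris pH 7.5, 100 mM NaCl, 5 mM MgCl2, 0.1% BSA, 0.01% Tween, 10% DMSO.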

[2] = molecular target: T2, Avi-KRAS G12R (1-169) GppNHp/RAF1 RBD-3xFLAG (52-151) (Homo sapiens, UniProt P01116, G12R); assay: Raf1-KRAS G12R-GppNHP disruption HTRF assay (Biological Example 1); type: binding
T2 construct: Avi-KRAS G12R (1-169)
T2 sequence (P01116 1-169 isoform P01116-2 G12R): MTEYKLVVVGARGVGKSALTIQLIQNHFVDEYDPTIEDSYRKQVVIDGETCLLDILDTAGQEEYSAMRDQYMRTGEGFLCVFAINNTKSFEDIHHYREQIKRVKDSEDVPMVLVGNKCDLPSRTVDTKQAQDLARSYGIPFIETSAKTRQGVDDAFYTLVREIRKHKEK
Outline: as §1

[3] = molecular target: T3, Avi-KRAS G12V (1-169) GppNHp/RAF1 RBD-3xFLAG (52-151) (Homo sapiens, UniProt P01116, G12V); assay: Raf1-KRAS G12V-GppNHP disruption HTRF assay (Biological Example 1); type: binding
T3 construct: Avi-KRAS G12V (1-169)
T3 sequence (P01116 1-169 isoform P01116-2 G12V): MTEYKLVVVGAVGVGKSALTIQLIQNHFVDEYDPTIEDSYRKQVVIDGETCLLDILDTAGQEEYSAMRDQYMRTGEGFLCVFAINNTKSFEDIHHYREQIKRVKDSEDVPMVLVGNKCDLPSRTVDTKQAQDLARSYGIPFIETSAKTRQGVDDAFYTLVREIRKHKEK
Outline: as §1

[4] = molecular target: T4, Avi-KRAS WT (1-169) GppNHp/RAF1 RBD-3xFLAG (52-151) (Homo sapiens, UniProt P01116); assay: Raf1-KRAS WT-GppNHP disruption HTRF assay (Biological Example 1); type: binding
T4 construct: Avi-KRAS WT (1-169)
T4 sequence (P01116 1-169 isoform P01116-2): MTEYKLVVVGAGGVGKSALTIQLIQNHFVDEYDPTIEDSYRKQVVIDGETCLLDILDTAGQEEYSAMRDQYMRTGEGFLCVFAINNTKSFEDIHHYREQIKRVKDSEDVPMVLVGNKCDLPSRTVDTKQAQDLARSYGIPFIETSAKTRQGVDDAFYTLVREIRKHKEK
Outline: as §1

[5] = system: GP2d cells (KRAS G12D); assay: Cell-based pERK HTRF assay in GP2d cell (Biological Example 2); conditions: GP2d (KRAS G12D) cells, pERK HTRF
Outline: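 Phospho-ERK in lysed cells was detected by HTRF using Eu cryptate and d2 antibodies, read between 4 and 24 h at room temperature. Prior to lysis, KRAS G12D GP2d cells, seeded the day before in DMEM with 10% FBS, were exposed to compounds for 60 min. Compounds were tested as 9-point half-log curves from 1 μM or 100 nM top, with 0.25% DMSO.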

[6] = system: SW620 cells (KRAS G12V); assay: Cell-based pERK HTRF assay in SW620 cell (Biological Example 4); conditions: pERK HTRF
Outline: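 SW620 (KRAS G12V) cells seeded at 3×10^4/well in RPMI, 10% FBS, then treated next day for 4 h with a 9-point half-log series from 1 μM top (0.25% DMSO). Lysates analyzed for pERK by HTRF (Eu cryptate/d2 antibodies, 4–24 h at room temperature), excitation 320 nm, emission 615 nm.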

[7] = KRAS G12D, GppNHp-loaded, Table 11
[8] = KRAS G12R, GppNHp-loaded, Table 11
[9] = KRAS G12V, GppNHp-loaded, Table 11
[10] = KRAS WT, GppNHp-loaded, Table 11
[11] = KRAS G12D, GppNHp-loaded, class symbols
[12] = KRAS G12R, GppNHp-loaded, class symbols
[13] = KRAS G12V, GppNHp-loaded, class symbols
[14] = KRAS WT, GppNHp-loaded, class symbols
[15] = Homo sapiens, SW-620, SW620 (KRAS G12V) cells, class symbols
[16] = Homo sapiens, SW-620, SW620 (KRAS G12V) cells

T1 sequence (P01116 1-169 isoform P01116-2 G12D): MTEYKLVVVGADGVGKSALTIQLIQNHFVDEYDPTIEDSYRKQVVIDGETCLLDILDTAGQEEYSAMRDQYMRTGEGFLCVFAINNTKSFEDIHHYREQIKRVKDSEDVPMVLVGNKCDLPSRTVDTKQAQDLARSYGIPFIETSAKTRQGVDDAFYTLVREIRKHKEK

Row | Structure (SMILES) | IC50 [1, 11] [µM] | IC50 [2, 12] [µM] | IC50 [3, 13] [µM] | IC50 [4, 14] [µM] | IC50 ([5]; GP2d, class symbols) [µM] | IC50 [6, 15] [µM] | IC50 ([1]; KRAS G12D-GppNHp/RAF1 RBD HTRF) [µM] | IC50 ([2]; KRAS G12R-GppNHp/RAF1 RBD HTRF) [µM] | IC50 ([3]; KRAS G12V-GppNHp/RAF1 RBD HTRF) [µM] | IC50 ([4]; KRAS WT-GppNHp/RAF1 RBD HTRF) [µM] | IC50 ([5]; GP2d) [µM] | IC50 [6, 16] [µM] | also measured
1 | CC(=O)N1CC[C@@H](N(C)c2nc(OC[C@@]34CCCN3C[C@H](F)C4)nc3c(F)c(-c4ccc(F)c5sc(N)c(C#N)c45)c(C(F)(F)F)cc23)[C@H]1C (single isomer, unassigned) [Compound 192] | – | – | – | – | – | – | – | – | – | – | – | – | IC50 [1, 7]: > 10 µM; IC50 [2, 8]: > 10 µM; IC50 [3, 9]: > 10 µM; IC50 [4, 10]: > 10 µM; IC50 [5]: > 1 µM; IC50 ([6]; SW620 (KRAS G12V) cells): > 1 µM
2 | Cc1ccc(CN(C)c2nc(OC[C@@]34CCCN3C[C@H](F)C4)nc3c(F)c(-c4ccc(F)c5sc(N)c(C#N)c45)c(C(F)(F)F)cc23)c(N)n1 (atropisomer, axis not shown) [Compound 736] | 0.1 to 1 | 0.1 to 1 | 0.1 to 1 | 1 to 10 | < 0.1 | 0.1 to 1 | – | – | – | – | – | – | –
3 | N#Cc1c(N)sc2c(F)ccc(-c3c(C(F)(F)F)cc4c(N5CCc6nocc6C5)nc(OC[C@@]56CCCN5C[C@H](F)C6)nc4c3F)c12 [Compound 457] | – | – | – | – | – | – | 0.1 to 1 | 0.1 to 1 | 0.1 to 1 | 0.1 to 1 | < 0.1 | < 0.1 | –
4 | C[C@@H]1[C@H](N(C)c2nc(OC[C@@]34CCCN3C[C@H](F)C4)nc3c(F)c(-c4ccc(F)c5sc(N)c(C#N)c45)c(C(F)(F)F)cc23)CCN1C(=O)C1CC1 (atropisomer, axis not shown) [Compound 334] | – | – | – | – | – | – | > 10 | > 10 | > 10 | > 10 | – | – | IC50 [5]: 0.1 to 1 µM; IC50 ([6]; SW620 (KRAS G12V) cells): 0.1 to 1 µM
5 | C[C@@H]1[C@H](N(C)c2nc(OC[C@@]34CCCN3C[C@H](F)C4)nc3c(F)c(-c4ccc(F)c5sc(N)c(C#N)c45)c(C(F)(F)F)cc23)CCN1C(=O)N(C)C [Compound 409] | – | – | – | – | – | – | 0.1 to 1 | 0.1 to 1 | 0.1 to 1 | 0.1 to 1 | < 0.1 | < 0.1 | –
6 | CCN(c1nc(OC[C@@]23CCCN2C[C@H](F)C3)nc2c(F)c(-c3ccc(F)c4sc(N)c(C#N)c34)c(C(F)(F)F)cc12)[C@H]1CCN(C(=O)N2CC3CC(C2)O3)C1 [Compound 651] | < 0.1 | < 0.1 | < 0.1 | < 0.1 | < 0.1 | < 0.1 | – | – | – | – | – | – | –
7 | CCN(c1nc(OC[C@@]23CCCN2C[C@H](F)C3)nc2c(F)c(-c3ccc(F)c4sc(N)c(C#N)c34)c(C(F)(F)F)cc12)[C@H]1CCN(C(=O)[C@H]2CCCCO2)C1 (atropisomer, axis not shown) [Compound 770] | < 0.1 | < 0.1 | < 0.1 | < 0.1 | < 0.1 | < 0.1 | – | – | – | – | – | – | –
8 | CCN(c1nc(OC[C@@]23CCCN2C[C@H](F)C3)nc2c(F)c(-c3ccc(F)c4sc(N)c(C#N)c34)c(C(F)(F)F)cc12)[C@H]1CC(=O)N(C)C1 [Compound 482] | – | – | – | – | – | – | 0.1 to 1 | 0.1 to 1 | 0.1 to 1 | 0.1 to 1 | < 0.1 | < 0.1 | –
9 | C[C@H]1CC[C@@H](O)CN1c1nc(OC[C@@]23CCCN2C[C@H](F)C3)nc2c(F)c(-c3ccc(F)c4sc(N)c(C#N)c34)c(C(F)(F)F)cc12 [Compound 317] | – | – | – | – | – | – | 0.1 to 1 | 0.1 to 1 | 1 to 10 | 0.1 to 1 | < 0.1 | < 0.1 | –
10 | CCN(c1nc(OC[C@@]23CCCN2C[C@H](F)C3)nc2c(F)c(-c3ccc(F)c4sc(N)c(C#N)c34)c(C(F)(F)F)cc12)[C@H]1CCN(C(=O)OC2CC(F)C2)C1 (stereo partly drawn) [Compound 776] | < 0.1 | < 0.1 | 0.1 to 1 | 0.1 to 1 | < 0.1 | < 0.1 | – | – | – | – | – | – | –
11 | CC(C)(O)[C@H]1CCN1c1nc(OC[C@@]23CCCN2C[C@H](F)C3)nc2c(F)c(-c3ccc(F)c4sc(N)c(C#N)c34)c(C(F)(F)F)cc12 [Compound 269] | – | – | – | – | – | – | – | – | – | – | < 0.1 | 0.1 to 1 | IC50 [1, 7]: 0.1 to 1 µM; IC50 [2, 8]: 0.1 to 1 µM; IC50 [3, 9]: 1 to 10 µM; IC50 [4, 10]: 0.1 to 1 µM
